In PubChem BioAssay AID2060607 (Molecular Pharmacology Branch, DTP, NCI, 2025):

System: 876862-298-R-J1-PDC complex spheroids, viability % test/control
Assay: Anticancer human tumor 876862-298-R-J1-PDC patient-derived endometrial carcinoma cell line growth inhibition [CLK]
Conditions: for IC50: curve of first compound; for viability, T/C: stronger effect = lower value; active means viability on the fitted dose curve at most 10% of control; inactive means the rest
Description: A high-throughput screen of multi-cell type tumor spheroids was designed to identify active combinations of […] and targeted small molecules. Complex spheroids include a stromal component modeled by human endothelial cells (HUVEC) and fibroblasts modeled by human mesenchymal stem cells (MSCs). The concentration ranges selected for each drug and investigational agent were based upon clinically achievable concentrations if the clinical Cmax of the agent was known.
Compounds. The drugs and investigational agents: cirtuvivint (SM08502; NSC835563), CC-671 (NSC850746), vemurafenib (NSC761431), tapotoclax (NSC804041), sotorasib (NSC818433), adagrasib (NSC831453), MRTX-1133 (NSC836407), BAY2416964 (NSC825713), copanlisib (NSC816437), inavolisib (NSC800729), abemaciclib (NSC768073), osimertinib (NSC779217), entinostat (NSC756642), eltanexor (KPT-8602, NSC794443), venetoclax (NSC766270), ceralasertib (NSC777638), bortezomib (NSC756655), olaparib (NSC753686), talazoparib (NSC767125), alisertib (NSC759677), peposertib (NSC802822), gemcitabine (NSC613327), 5-fluorouracil (NSC19893), SN-38 (NSC673596), oxaliplatin (NSC266046), paclitaxel (NSC125973), and doxorubicin (NSC123127), were obtained from the National Cancer Institute (NCI) Developmental Therapeutics Program Chemical Repository. The FDA-approved anticancer drug set is available from the Developmental Therapeutics Program at https://dtp.cancer.gov/organization/dscb/obtaining/available plates.htm. […] The stock solutions were prepared in dimethyl sulfoxide (DMSO, Sigma-Aldrich, St. Louis, MO, cat. D2650), except for the platinum complexes which were prepared in saline (Quality Biological, Gaithersburg, MD, cat. 114-055-101), at 800-fold the tested concentration and stored at -70 degrees C prior to their use. All drugs and investigational agents were tested over a range starting from a high concentration at or near the clinical Cmax and decreasing in half-log increments. If the clinical Cmax for an agent had not been determined, the highest concentration tested was 10 microM.
Cell Culture. All cells were maintained in an incubator at 37 degrees C and 5% CO2 with 95% humidity. The PDC lines were cultured according to standard operating procedures established by the NCI PDMR. Briefly, all PDCs were thawed and cultured in Matrigel-coated flasks prepared with a working solution of 1X Ham's F-12 nutrient mix, without supplementation (Invitrogen, Waltham, MA, cat. 11765054), 100 U/mL penicillin-streptomycin (Invitrogen, cat. 15140122), and 2.5% Matrigel (Corning Inc., Corning, NY, cat. 354248) for the first three passages. The 947758-054-R-J2-PDC line was cultured in 6B/Colon 1A media, which includes advanced DMEM/F-12 (Thermo Fisher Scientific, cat. 12634028), 10 mM HEPES (Thermo Fisher Scientific, cat. 15630080), 1X GlutaMAX supplement (Thermo Fisher Scientific, cat. 35050061), 0.1 mg/mL primocin (InvivoGen, cat. ant-pm-2), 10% defined fetal bovine serum, heat inactivated (HyClone Laboratories Inc., cat. SH30070.03HI), 1.25 mM N-Acetyl-L-cysteine (Sigma-Aldrich, cat. A9165), 10 mM nicotinamide (Sigma-Aldrich, cat. N0636), 1X B-27 supplement (Thermo Fisher Scientific, cat. 17504044), 1X N-2 supplement (Thermo Fisher Scientific, cat. 17502048), and 10 microM Y-27632 dihydrochloride (Tocris Bioscience, cat. 1254). The 876862-298-R-J1-PDC was cultured in 6E media, which includes all 6B/Colon 1A media components plus 50% L-WRN conditioned media (ATCC, cat. CRL-3276), 50 ng/mL recombinant human EGF recombinant protein (hEGF; Thermo Fisher Scientific, cat. PHG0311), 10 ng/mL recombinant human fibroblast growth factor 10 (hGFG-10; PeproTech, cat. 100-26), 1 ng/mL recombinant human fibroblast growth factor 2 (hFGF-2; PeproTech, cat. 100-18B), and 1 µM prostaglandin E2 (PGE2; Tocris, cat. 2296). The 227483-062-R1-J1-PDC line was cultured in Panc media, containing all 6E components except hFGF-2, with the addition of 500 nM SB-431542 (Selleckchem, cat. S1067) and 10 nM gastrin (Tocris, cat. 3006). […]

[1] = second compound 0.0316 µM, first compound 0.0316 µM
[2] = second compound 0.0316 µM, first compound 0.1 µM
[3] = second compound 0.0316 µM, first compound 0.316 µM
[4] = second compound 0.0316 µM, first compound 1 µM
[5] = second compound 0.0316 µM, first compound 3.16 µM
[6] = second compound 0.0316 µM, first compound 10 µM
[7] = second compound 0.1 µM, first compound 0.0316 µM
[8] = second compound 0.1 µM, first compound 0.1 µM
[9] = second compound 0.1 µM, first compound 0.316 µM
[10] = second compound 0.1 µM, first compound 1 µM
[11] = second compound 0.1 µM, first compound 3.16 µM
[12] = second compound 0.1 µM, first compound 10 µM
[13] = second compound 0.316 µM, first compound 0.0316 µM
[14] = second compound 0.316 µM, first compound 0.1 µM
[15] = second compound 0.316 µM, first compound 0.316 µM
[16] = second compound 0.316 µM, first compound 1 µM
[17] = second compound 0.316 µM, first compound 3.16 µM
[18] = second compound 0.316 µM, first compound 10 µM
[19] = second compound 1 µM, first compound 0.0316 µM
[20] = second compound 1 µM, first compound 0.1 µM
[21] = second compound 1 µM, first compound 0.316 µM
[22] = second compound 1 µM, first compound 1 µM
[23] = second compound 1 µM, first compound 3.16 µM
[24] = second compound 1 µM, first compound 10 µM
[25] = second compound 3.16 µM, first compound 0.0316 µM
[26] = second compound 3.16 µM, first compound 0.1 µM
[27] = second compound 3.16 µM, first compound 0.316 µM
[28] = second compound 3.16 µM, first compound 1 µM
[29] = second compound 3.16 µM, first compound 3.16 µM
[30] = second compound 3.16 µM, first compound 10 µM
[31] = second compound 10 µM, first compound 0.0316 µM
[32] = second compound 10 µM, first compound 0.1 µM
[33] = second compound 10 µM, first compound 0.316 µM
[34] = second compound 10 µM, first compound 1 µM
[35] = second compound 10 µM, first compound 3.16 µM
[36] = second compound 10 µM, first compound 10 µM
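Further: spheroids exposed to drugs for 7 days before readout.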
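Wherever viability, T/C is given: 100% = DMSO vehicle control wells.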

C=C(F)C(=O)N1CCN(c2nc(OCC3CCCN3C)nc3c2CCN(c2cccc4cccc(Cl)c24)C3)CC1CC#N (centres undefined) + CN1CCN(c2cc(C(=O)Nc3cc4cc(-c5cnn(C)c5)ccc4cn3)ccn2)CC1
< 31.6 nM: IC50 (second compound 0.316 µM) | IC50 (second compound 1 µM) | IC50 (second compound 3.16 µM) | IC50 (second compound 10 µM)
active: viability, T/C [6] 9.9% | viability, T/C [12] 4.78% | viability, T/C [13] 4.71% | viability, T/C [14] 4.05% | viability, T/C [15] 6.86% | viability, T/C [16] 5.08% | viability, T/C [17] 3.01% | viability, T/C [18] 0.46% | viability, T/C [19] 1.31% | viability, T/C [20] 1.26% | viability, T/C [21] 0.91% | viability, T/C [22] 1.47% | viability, T/C [23] 1.43% | viability, T/C [24] 0.85% | viability, T/C [25] 1.01% | viability, T/C [26] 1.11% | viability, T/C [27] 2.16% | viability, T/C [28] 1.83% | viability, T/C [29] 1.72% | viability, T/C [30] 0.4% | viability, T/C [31] 0.93% | viability, T/C [32] 1.28% | viability, T/C [33] 2.22% | viability, T/C [34] 1.62% | viability, T/C [35] 1.63% | viability, T/C [36] 1.23%
inactive: viability, T/C [1] 82.8% | viability, T/C [2] 93.9% | viability, T/C [3] 82.3% | viability, T/C [4] 95.2% | viability, T/C [5] 73.6% | viability, T/C [7] 47.9% | viability, T/C [8] 51.7% | viability, T/C [9] 50.4% | viability, T/C [10] 51.6% | viability, T/C [11] 50.4%
4840 nM: IC50 (second compound 0.0316 µM)
3190 nM: IC50 (second compound 0.1 µM)

CC(CO)NC(=O)c1cc(-c2ccc(Cl)cc2)nn(-c2cnn(C)c2)c1=O (centres undefined) + CN1CCN(c2cc(C(=O)Nc3cc4cc(-c5cnn(C)c5)ccc4cn3)ccn2)CC1
active: viability, T/C [13] 5.52% | viability, T/C [14] 5.79% | viability, T/C [15] 7.05% | viability, T/C [16] 8.98% | viability, T/C [17] 8.34% | viability, T/C [18] 8.71% | viability, T/C [19] 1.36% | viability, T/C [20] 1.36% | viability, T/C [21] 2.15% | viability, T/C [22] 1.19% | viability, T/C [23] 1.66% | viability, T/C [24] 1.71% | viability, T/C [25] 1.12% | viability, T/C [26] 1.53% | viability, T/C [27] 2.58% | viability, T/C [28] 1.7% | viability, T/C [29] 2.81% | viability, T/C [30] 2.69% | viability, T/C [31] 1.23% | viability, T/C [32] 1.96% | viability, T/C [33] 2.08% | viability, T/C [34] 2.68% | viability, T/C [35] 1.84% | viability, T/C [36] 2.5%
319 nM: IC50 (second compound 0.1 µM)
> 10000 nM: IC50 (second compound 0.0316 µM)
< 31.6 nM: IC50 (second compound 0.316 µM) | IC50 (second compound 1 µM) | IC50 (second compound 3.16 µM) | IC50 (second compound 10 µM)
inactive: viability, T/C [1] 94.8% | viability, T/C [2] 81.7% | viability, T/C [3] 69.5% | viability, T/C [4] 68.8% | viability, T/C [5] 67.5% | viability, T/C [6] 57.3% | viability, T/C [7] 53.9% | viability, T/C [8] 52.5% | viability, T/C [9] 49% | viability, T/C [10] 46.2% | viability, T/C [11] 49.5% | viability, T/C [12] 43.7%
